#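 How tested: cells in 96-well plates exposed to compound for 48 hours at five concentrations. Abbreviation: GI50, concentration required for 50% inhibition of growth. The concentration for full growth arrest is given as TGI.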
# What was measured:
# Experiment in all cases: NCI tumour cell line growth inhibition, 48 h
# MALME-3M melanoma = tested on: MALME-3M melanoma
# MOLT-4 leukemia = tested on: MOLT-4 leukemia
# DU-145 prostate = tested on: DU-145 prostate
# K-562 leukemia = tested on: K-562 leukemia
# U251 CNS = tested on: U251 CNS
# NCI-H226 lung = tested on: NCI-H226 lung
# HS 578T breast = tested on: HS 578T breast
# CAKI-1 renal = tested on: CAKI-1 renal
# EKVX NSCLC = tested on: EKVX NSCLC
# BT-549 breast = tested on: BT-549 breast
Compound,GI50 (MALME-3M melanoma),TGI (MALME-3M melanoma),GI50 (MOLT-4 leukemia),TGI (MOLT-4 leukemia),GI50 (DU-145 prostate),TGI (DU-145 prostate),GI50 (K-562 leukemia),TGI (K-562 leukemia),GI50 (U251 CNS),TGI (U251 CNS),GI50 (NCI-H226 lung),TGI (NCI-H226 lung),GI50 (HS 578T breast),TGI (HS 578T breast),GI50 (CAKI-1 renal),TGI (CAKI-1 renal),TGI (EKVX NSCLC),GI50 (EKVX NSCLC),GI50 (BT-549 breast),TGI (BT-549 breast)
CC(=O)Oc1ccccc1C(=O)NCCC[Se]C#N,1720 nM,3.62 µM,2.46 µM,8.53 µM,1720 nM,3.17 µM,3.46 µM,21.1 µM,1600 nM,2.95 µM,2.06 µM,5.62 µM,2120 nM,6.8 µM,1.97 µM,3.94 µM,–,–,–,–
NCCn1cnc2nc(NC(=O)c3ccccc3)[nH]c(=O)c21,–,> 100 µM,–,> 100 µM,–,–,–,> 100 µM,–,> 100 µM,–,> 100 µM,–,–,–,–,> 100 µM,–,–,–
COC(=O)c1ccc(NC(N)=NCC(C)(C)COc2ccc(C(F)(F)F)cc2)nc1,1720 nM,3.48 µM,–,–,1700 nM,3.2 µM,–,–,1610 nM,3.05 µM,–,–,1970 nM,4.33 µM,–,–,3.41 µM,1.43 µM,–,–
C/C=C/C=C/CCCCCCCCCCCCC[C@]1(OC)C=CC(CC(=O)OC)OO1 (stereo not given in full),–,77.5 µM,19.9 µM,48.7 µM,–,–,–,52.1 µM,–,–,–,–,–,–,17.1 µM,31.1 µM,57.6 µM,26.3 µM,–,–
Cc1cccc(C)c1NC(=O)CCCC(=O)C(C#N)c1ccc(Cl)cc1 (stereo not given),–,> 100 µM,–,> 100 µM,–,–,–,> 100 µM,–,> 100 µM,–,> 100 µM,–,–,–,> 100 µM,> 100 µM,–,–,–
O=C1c2ccccc2C(=O)c2sc(Nc3ccc(Cl)cc3)nc21,–,3.25 µM,–,3.75 µM,–,–,–,5.12 µM,–,3.55 µM,–,15.3 µM,2920 nM,14.1 µM,–,5.86 µM,17.9 µM,–,2.87 µM,11.7 µM
Cc1cc(Cl)cc2c1NC(=O)C2(O)CC(=O)c1ccc(F)cc1 (stereo not given),–,75.1 µM,–,–,–,–,–,–,–,> 100 µM,–,> 100 µM,–,–,–,> 100 µM,> 100 µM,–,–,–
Cc1ccccc1NC(=O)C(=O)CC(=O)C1CCOC1=O (stereo not given),–,> 100 µM,–,–,–,–,–,> 100 µM,–,> 100 µM,–,> 100 µM,–,–,–,> 100 µM,> 100 µM,–,–,–
COc1ccc(/C(=C\c2cc(OC)c(OC)c(OC)c2)C(=O)O)cc1,–,> 100 µM,–,86.3 µM,–,–,–,> 100 µM,–,> 100 µM,–,77.4 µM,–,–,–,> 100 µM,> 100 µM,–,–,–
OCC#CCCCCOCC#Cc1ccccc1C#CCOCCCCC#CCO,–,–,14.8 µM,> 100 µM,17600 nM,41.3 µM,22.3 µM,65.6 µM,17200 nM,35.2 µM,23.7 µM,59 µM,25000 nM,65.4 µM,27.2 µM,64.8 µM,41.3 µM,17.8 µM,16.8 µM,41.2 µM
CCOC(=O)C1=C(c2ccccc2)NC(c2ccccc2)=C(C(=O)OCC)c2c1c(=O)cc[nH]c2=O,–,> 100 µM,–,> 100 µM,–,–,–,> 100 µM,–,> 100 µM,–,> 100 µM,–,–,–,> 100 µM,–,–,–,–
